Measured values as given in patent publication EP1258248A2, “Tumor treatments comprising a fumagillol derivative and a further antineoplastic agent” (TAP Pharmaceutical Products, Inc., priority 2001, dated 2002).
Read-outs that look alike come from different tables or passages of the source.

Tests used:
lung cancer [1] = test: Phase I clinical study of intermittent TNP-470 combined with paclitaxel (Example 1), lung cancer patients; assay type: in vivo, human
Description: (§1) TNP-470 administrations were repeated up to three times per week.
(§2) In the table, "response" refers to the percentage of patients whose tumor shrank by more than fifty percent; and "time to progression" refers to the median value of the length of time between the first dose of drug and observation that the tumor has grown by more than fifty percent, or that new tumors have appeared. Patients who stop taking the drug for other reasons are considered lost to follow-up for "time to progression" calculations. "Survival" in the table is a median value.

[2] = test system: advanced or metastatic cancer; test: Phase I clinical study of intermittent TNP-470 combined with paclitaxel (Example 1), all patients; assay type: in vivo, human; conditions: TNP-470 20-60 mg/m^2 + 135-225 mg/m^2 paclitaxel; 32 patients (different cancers)
Description: as §1, §2

[3] = test system: non-small cell lung cancer; test: Phase I clinical study of intermittent TNP-470 with paclitaxel and carboplatin at a dose of AUC 5 (Example 2); assay type: in vivo, human
[4] = test system: advanced or metastatic cancer; test: Phase I clinical study of intermittent TNP-470 with paclitaxel and carboplatin at a dose of AUC 6 (Example 2)
Description: Doses of TNP-470 and paclitaxel were modified as described below.
Twenty adult patients with advanced or metastatic cancer, were treated with TNP-470 (synthesized according to the procedure of U.S. Patent No. 5,180,738) in a liquid cyclodextrin-containing formulation using repeated administrations of a high dose (60 mg/m^2) given over one hour, combined with 225 mg/m^2 paclitaxel given over three hours. Carboplatin was given at doses calculated to provide an "area-under-the-curve (AUC)" exposure of 5 or 6 mg/mL/min (hereinafter referred to as "a dose of AUC 5" or "a dose of AUC 6"), according to the formula Dose (mg) = AUC x (glomerular filtration rate + 25) [formula] as described in the package insert for carboplatin. Glomerular filtration rate was estimated by creatinine clearance, either measured or calculated from the patient's age, weight, gender and serum creatinine according to the Cockcroft-Gault equation Cr CL = ((140-age) x weight (kg)/72 x serum creatinine) x 1.0 if male or 0.85 if female [formula]
In this study, paclitaxel was administered first, followed one hour later by TNP-470, then finally by the carboplatin. TNP-470 administrations were repeated up to three thimes per week. Paclitaxel and carboplatin administrations were repeated every three weeks as the patients' condition permitted. Anti-emetic therapy and prophylaxis against paclitaxel hypersensitivity were administered in accordance with the paclitaxel package insert on days when paclitaxel and carboplatin were administered.
The patients' tumors were measured at the start of the study, after six to eight weeks of therapy, and at two-month intervals thereafter. Patients continued to receive TNP-470 until tumors grew by 50% or they experienced adverse events.
Three patients, all with non-small cell lung cancer, received TNP-470 in combination with paclitaxel and carboplatin (a dose of AUC 5).

metastatic cancer = test: Phase I clinical study of continuously infused TNP-470 with paclitaxel and carboplatin (Example 3); assay type: in vivo, human; conditions: TNP-470 2.5-10 mg/m^2 continuous infusion with or without 60 on Day 1 + 200-225 mg/m^2 paclitaxel; carboplatin AUC 5-6; 20 patients (different cancers)
Description: Twenty adult patients with metastatic cancer, including patients with lung cancer, were treated with TNP-470, using repeated continuous administrations of low doses (2.5-10 mg/m^2 over five days in combination with paclitaxel at doses of 200-225 mg/m^2 and carboplatin at a dose of AUC 5 or AUC 6 (as explained in Example 2 above) reported in row 7 of Table 1 above.
In this study, paclitaxel was administered first, followed by the carboplatin, then by TNP-470 administered intravenously via portable continuous infusion syringe pump (available from Sims-Deltec) at a dose of 2.5 -10 mg/m^2 for five days (115-120 hours). The five-day TNP-470 infusion was repeated every week.
In an ongoing cohort of this study, in addition to the described therapy, nine patients received 60 mg/m^2 TNP-470 as a one-hour intravenous infusion after infusion of paclitaxel and prior to infusion of carboplatin. This high-dose one-hour TNP-470 infusion was administered only when paclitaxel and carboplatin were administered.

lung cancer [5] = conditions: no TNP-470, lung cancer historical data, cited from earlier work
[6] = TNP-470 20-60 mg/m^2 + 135-225 mg/m^2 paclitaxel, 15 patients (lung cancer only), median
[7] = TNP-470 60 mg/m^2 + 225 mg/m^2 paclitaxel, carboplatin AUC 6, 14 patients (different cancers)

SMILES | Survival (months) (lung cancer [1]; [6]) | Time to Progression (months) (lung cancer [1]; [6]) | Responses (percentage) (lung cancer [1]; TNP-470 20-60 mg/m^2 i.v. up to three times per week + 135-225 mg/m^2 paclitaxel every three weeks, 15 patients (lung cancer only)) | increase in survival over that previously reported for patients treated with paclitaxel alone (lung cancer [1]; TNP-470 + paclitaxel, patients with lung cancer, 14.3 months vs. 8 months) | Responses (percentage) [2] [percentage] | Responses (percentage) ([3]; TNP-470 60 mg/m^2 + 225 mg/m^2 paclitaxel, carboplatin AUC 5, 3 patients (lung cancer only)) | Survival (months) ([3]; TNP-470 60 mg/m^2 + 225 mg/m^2 paclitaxel, carboplatin AUC 5, 3 patients (lung cancer only), individual values) | tumor response in words ([3]; TNP-470 in combination with paclitaxel and carboplatin (a dose of AUC 5), three patients, all with non-small cell lung cancer) | tumor shrinkage ([3]; TNP-470 with paclitaxel and carboplatin, patients with non-small-cell lung cancer) | tolerability of the combined therapy ([4]; TNP-470 60 mg/m^2 + 225 mg/m^2 paclitaxel + carboplatin at a dose of AUC 6, variety of different cancers, prior chemotherapy) | Survival (months) [4, 7] | Time to Progression (months) [4, 7] | Responses (percentage) ([4]; TNP-470 60 mg/m^2 + 225 mg/m^2 paclitaxel, carboplatin AUC 6, 14 patients (different cancers), prior chemotherapy, insufficient therapy to evaluate effectiveness) | Responses (percentage) (metastatic cancer) | Survival (months) (lung cancer [5]; median) | Time to Progression (months) (lung cancer [5]; median) | Responses (percentage) (lung cancer [5]; patients whose tumor shrank by more than fifty percent)
CO[C@@H]1[C@H](OC(=O)NC(=O)CCl)CC[C@]2(CO2)[C@H]1[C@@]1(C)O[C@@H]1CC=C(C)C [TNP-470, 6-O-(N-chloroacetylcarbamoyl) fumagillol] | 14.3 | 5.4 | 33 | greater than 70% | 28 | 100 | often, sixteen and more than twenty-two | All three had partial responses | experienced tumor shrinkage | tolerated the combined therapy poorly beyond two cycles of therapy | regimen not tolerated | regimen not tolerated | 0 | 20 |  |  | 
CC(=O)O[C@H]1C(=O)[C@@]2(C)[C@H]([C@H](OC(=O)c3ccccc3)[C@]3(O)C[C@H](OC(=O)[C@H](O)[C@@H](NC(=O)c4ccccc4)c4ccccc4)C(C)=C1C3(C)C)[C@]1(OC(C)=O)CO[C@@H]1C[C@@H]2O [paclitaxel] |  |  |  |  |  |  |  |  |  |  |  |  |  |  | 6-9 months | ∼3 months | 20-30 percentage
